What all share (format): biochemical
The target in assay [1] is T1, PIM-1 (Homo sapiens, UniProt P11309).
T1 construct: purchased Upstate 14-573
Briefly: Inhibition of kinase PIM-1 (Kinase-Glo). The conditions noted are these: PIM-1 0.625 μg/ml, 10 μM ATP, forty minutes at 30° C. Summed up: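 PIM-1 (0.625 μg/ml) in MOPS/NaOH pH 7 with Mg acetate was run with 70 μM S6 kinase/Rsk2 peptide and 10 μM ATP, with compound at 10 nM–30 μM final.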
(Kinase-Glo measures the ATP left after a reaction by luminescence.)

Assay [2] addresses T2, RET (Homo sapiens, UniProt P07949).
T2 construct: purchased Upstate 14-570MG
Kind of assay: Inhibition of RET kinase activity, recombinant RET method (Kinase-Glo). The conditions noted are these: RET 2 μg/ml, poly-EY4 substrate, 20 μM ATP, two hours at 30° C. Summed up: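 Recombinant RET at 2 μg/ml in 20 mM MOPS/NaOH pH 7.0, 1 mM EDTA, 5% glycerol, 0.01% Brij35, 0.1% 2-mercaptoethanol, 1 mg/ml BSA; compounds 10 nM–30 μM final.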

Assay [3] concerns the target ALK (Homo sapiens, UniProt Q9UM73). Briefly: Inhibition of kinase ALK (PLCγ1-GST substrate, anti-phosphotyrosine ELISA). The conditions noted are these: ALK 180 ng/ml, 250 μM ATP, 30 minutes at 30° C. As for the experimental part: Incubation is carried out for 30 minutes at 30° C. with agitation.
The signal is read in luminescent mode using a luminometer.
On the technique in general: In an ELISA, binding on a coated surface is turned into a signal by an enzyme label.

For assay [4], the target named is T3, TrkB (Homo sapiens, UniProt Q16620).
T3 construct: purchased Upstate 14-507
Briefly: Inhibition of kinase TrkB (Kinase-Glo). The conditions noted are these: TrkB 4 μg/ml, 40 μM ATP, two hours at 30° C. Summed up: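 TrkB at 4 μg/ml with 2.5 mg/ml poly-EY and 40 μM ATP in MOPS/NaOH pH 7 buffer with MgAc, EDTA, DTT, vanadate and glycerophosphate; compounds at final 10 nM–30 μM. After 2 h at 30°C, remaining ATP measured by Kinase-Glo luminescence.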

The target of assay [5] is T4, TrkA (Homo sapiens, UniProt P04629).
T4 construct: purchased Upstate 14-571
Kind of assay: Inhibition of kinase TrkA (Kinase-Glo). The settings on record: TrkA 4 μg/ml, 30 μM ATP, two hours at 30° C. Summed up: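 TrkA (4 μg/ml) was incubated with 1 mg/ml poly-EY and 30 μM ATP in MOPS pH 7 buffer with Mg acetate, DTT and vanadate, compounds at 10 nM–30 μM final, for 2 h at 30 °C. Remaining ATP was quantified by Kinase-Glo luminescence.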

The text below walks through data of patent US8426437B2, “Pyrroloquinoline derivatives and their use as protein kinases inhibitors” (Pierre Fabre Medicament, priority 2005, dated 2013).

Structures are written as SMILES.

Sequence of ALK (Q9UM73 19-1620, species assumed): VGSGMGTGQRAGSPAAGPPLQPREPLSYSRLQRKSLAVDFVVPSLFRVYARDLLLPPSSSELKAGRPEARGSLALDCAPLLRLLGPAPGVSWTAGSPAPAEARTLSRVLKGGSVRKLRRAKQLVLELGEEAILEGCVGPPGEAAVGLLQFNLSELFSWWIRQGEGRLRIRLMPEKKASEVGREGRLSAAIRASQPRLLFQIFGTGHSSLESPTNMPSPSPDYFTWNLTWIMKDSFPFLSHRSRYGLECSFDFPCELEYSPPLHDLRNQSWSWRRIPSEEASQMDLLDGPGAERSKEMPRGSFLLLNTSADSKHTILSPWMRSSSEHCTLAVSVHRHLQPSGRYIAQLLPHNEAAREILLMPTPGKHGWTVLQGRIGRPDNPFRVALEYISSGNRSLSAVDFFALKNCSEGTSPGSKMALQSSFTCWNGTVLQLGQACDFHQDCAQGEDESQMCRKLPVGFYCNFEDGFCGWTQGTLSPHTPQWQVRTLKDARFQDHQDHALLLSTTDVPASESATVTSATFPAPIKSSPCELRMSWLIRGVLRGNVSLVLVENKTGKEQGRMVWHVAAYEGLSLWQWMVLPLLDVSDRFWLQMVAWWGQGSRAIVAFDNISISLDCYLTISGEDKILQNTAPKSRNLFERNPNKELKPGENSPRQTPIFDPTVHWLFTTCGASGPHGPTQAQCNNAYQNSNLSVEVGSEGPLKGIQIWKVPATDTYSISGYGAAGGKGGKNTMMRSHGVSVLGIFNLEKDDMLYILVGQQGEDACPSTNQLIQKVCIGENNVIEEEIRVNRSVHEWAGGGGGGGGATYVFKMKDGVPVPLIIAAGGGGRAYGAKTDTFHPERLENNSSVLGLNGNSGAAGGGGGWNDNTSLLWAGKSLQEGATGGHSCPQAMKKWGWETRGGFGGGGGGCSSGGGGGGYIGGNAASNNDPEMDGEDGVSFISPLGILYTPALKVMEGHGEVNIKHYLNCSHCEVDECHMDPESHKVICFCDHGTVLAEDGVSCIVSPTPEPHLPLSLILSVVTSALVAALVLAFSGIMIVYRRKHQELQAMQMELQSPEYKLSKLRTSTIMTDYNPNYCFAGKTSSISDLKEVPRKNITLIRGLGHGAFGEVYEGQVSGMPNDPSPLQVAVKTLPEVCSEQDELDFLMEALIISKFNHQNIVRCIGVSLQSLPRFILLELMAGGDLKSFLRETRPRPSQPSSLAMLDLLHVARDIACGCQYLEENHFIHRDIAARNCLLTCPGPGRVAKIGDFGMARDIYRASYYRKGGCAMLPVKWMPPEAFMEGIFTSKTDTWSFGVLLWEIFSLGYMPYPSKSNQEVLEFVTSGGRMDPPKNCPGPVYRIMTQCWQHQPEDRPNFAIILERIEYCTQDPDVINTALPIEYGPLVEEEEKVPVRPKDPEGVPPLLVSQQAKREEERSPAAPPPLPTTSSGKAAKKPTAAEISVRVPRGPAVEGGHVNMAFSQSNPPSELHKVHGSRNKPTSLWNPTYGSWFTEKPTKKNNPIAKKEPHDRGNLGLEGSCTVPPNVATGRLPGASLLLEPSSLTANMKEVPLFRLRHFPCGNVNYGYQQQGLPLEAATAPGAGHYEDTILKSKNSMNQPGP
T2 sequence (P07949 29-1114): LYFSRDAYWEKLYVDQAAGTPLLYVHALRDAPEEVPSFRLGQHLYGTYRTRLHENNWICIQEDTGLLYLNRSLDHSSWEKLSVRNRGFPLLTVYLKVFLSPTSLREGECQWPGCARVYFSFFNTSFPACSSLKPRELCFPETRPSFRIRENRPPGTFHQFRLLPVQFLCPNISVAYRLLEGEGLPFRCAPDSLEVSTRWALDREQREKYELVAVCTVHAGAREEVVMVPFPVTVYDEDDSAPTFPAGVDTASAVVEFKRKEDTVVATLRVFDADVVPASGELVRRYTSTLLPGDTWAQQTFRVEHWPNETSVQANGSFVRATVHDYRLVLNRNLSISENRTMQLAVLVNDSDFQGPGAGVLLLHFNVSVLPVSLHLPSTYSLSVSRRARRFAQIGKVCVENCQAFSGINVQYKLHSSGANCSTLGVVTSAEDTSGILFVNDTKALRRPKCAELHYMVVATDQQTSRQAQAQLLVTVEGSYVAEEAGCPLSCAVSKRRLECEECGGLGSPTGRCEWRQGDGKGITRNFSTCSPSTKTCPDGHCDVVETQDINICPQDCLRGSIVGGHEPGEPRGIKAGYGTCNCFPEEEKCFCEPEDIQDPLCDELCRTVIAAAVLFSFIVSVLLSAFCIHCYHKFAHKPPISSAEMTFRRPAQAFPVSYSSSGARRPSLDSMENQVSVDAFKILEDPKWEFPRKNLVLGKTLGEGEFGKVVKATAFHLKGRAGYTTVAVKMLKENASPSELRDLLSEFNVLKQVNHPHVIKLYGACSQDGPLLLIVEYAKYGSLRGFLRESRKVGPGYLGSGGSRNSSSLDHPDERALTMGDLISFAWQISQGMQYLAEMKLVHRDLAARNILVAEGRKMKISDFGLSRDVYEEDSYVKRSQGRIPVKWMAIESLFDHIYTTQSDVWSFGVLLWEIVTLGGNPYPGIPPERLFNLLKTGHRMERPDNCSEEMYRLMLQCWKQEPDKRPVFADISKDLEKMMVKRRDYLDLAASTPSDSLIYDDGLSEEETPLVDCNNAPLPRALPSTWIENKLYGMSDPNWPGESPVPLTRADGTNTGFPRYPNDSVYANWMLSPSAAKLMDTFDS
T1 sequence (P11309 whole entry): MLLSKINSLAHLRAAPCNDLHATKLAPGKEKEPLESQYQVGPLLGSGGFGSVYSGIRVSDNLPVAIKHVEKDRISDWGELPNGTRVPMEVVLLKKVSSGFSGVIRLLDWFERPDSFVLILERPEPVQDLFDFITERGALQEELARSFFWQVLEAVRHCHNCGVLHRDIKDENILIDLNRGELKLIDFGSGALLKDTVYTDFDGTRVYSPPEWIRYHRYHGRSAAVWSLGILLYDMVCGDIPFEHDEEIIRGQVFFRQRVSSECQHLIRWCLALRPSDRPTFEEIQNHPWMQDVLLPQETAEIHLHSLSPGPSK
T4 sequence (P04629 33-796): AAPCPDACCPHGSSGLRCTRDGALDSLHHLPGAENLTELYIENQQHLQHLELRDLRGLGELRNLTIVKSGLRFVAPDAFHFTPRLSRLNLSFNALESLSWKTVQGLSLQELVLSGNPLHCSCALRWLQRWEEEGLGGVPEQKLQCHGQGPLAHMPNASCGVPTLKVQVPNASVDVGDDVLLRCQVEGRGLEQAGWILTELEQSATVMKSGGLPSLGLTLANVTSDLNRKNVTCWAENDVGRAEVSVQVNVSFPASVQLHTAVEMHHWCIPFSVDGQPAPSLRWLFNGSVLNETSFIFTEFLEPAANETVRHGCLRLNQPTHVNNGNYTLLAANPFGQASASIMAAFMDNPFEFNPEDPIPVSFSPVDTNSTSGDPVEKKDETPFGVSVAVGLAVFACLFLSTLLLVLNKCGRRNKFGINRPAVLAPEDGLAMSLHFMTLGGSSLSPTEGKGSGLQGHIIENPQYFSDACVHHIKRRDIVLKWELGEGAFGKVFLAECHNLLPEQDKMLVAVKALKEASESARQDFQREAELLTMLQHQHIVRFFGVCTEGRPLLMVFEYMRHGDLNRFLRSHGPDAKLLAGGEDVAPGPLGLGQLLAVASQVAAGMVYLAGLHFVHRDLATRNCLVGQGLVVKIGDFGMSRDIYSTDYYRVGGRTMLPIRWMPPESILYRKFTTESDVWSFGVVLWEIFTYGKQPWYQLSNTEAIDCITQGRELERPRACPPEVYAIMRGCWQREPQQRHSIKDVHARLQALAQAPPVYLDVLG
T3 sequence (Q16620 32-822): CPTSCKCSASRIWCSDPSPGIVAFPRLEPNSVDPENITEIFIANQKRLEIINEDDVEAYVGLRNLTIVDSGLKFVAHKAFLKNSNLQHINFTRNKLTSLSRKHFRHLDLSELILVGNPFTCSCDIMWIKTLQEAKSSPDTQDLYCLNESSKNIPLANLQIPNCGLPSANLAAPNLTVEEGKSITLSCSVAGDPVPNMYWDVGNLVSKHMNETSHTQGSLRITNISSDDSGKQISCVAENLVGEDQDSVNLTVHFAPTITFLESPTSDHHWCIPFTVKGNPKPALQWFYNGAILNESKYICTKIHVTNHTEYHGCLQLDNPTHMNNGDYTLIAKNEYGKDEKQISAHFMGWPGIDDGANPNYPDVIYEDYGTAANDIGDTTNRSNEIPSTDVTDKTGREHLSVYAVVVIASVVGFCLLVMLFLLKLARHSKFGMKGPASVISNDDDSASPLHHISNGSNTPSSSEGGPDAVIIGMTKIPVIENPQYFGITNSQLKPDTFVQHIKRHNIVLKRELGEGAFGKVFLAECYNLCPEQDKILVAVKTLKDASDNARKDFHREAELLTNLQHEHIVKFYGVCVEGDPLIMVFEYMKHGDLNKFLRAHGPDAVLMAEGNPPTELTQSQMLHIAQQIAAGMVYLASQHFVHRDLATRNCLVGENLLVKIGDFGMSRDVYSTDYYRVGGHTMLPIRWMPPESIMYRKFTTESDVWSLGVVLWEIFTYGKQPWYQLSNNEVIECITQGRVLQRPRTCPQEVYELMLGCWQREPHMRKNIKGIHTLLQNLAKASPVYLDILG

One may read the IC50 as the concentration that inhibits the measured activity by half. With `CCOC(=O)c1c[nH]c2c(=O)[nH]c3ccc(S(=O)(=O)NC[C@H]4CCNC4)cc3c12` [Compound 97, (S)-4-Oxo-8-[(pyrrolidin-3-methyl)-sulfamoyl]-4,5-dihydro-3H-pyrrolo[2,3-c]quinoline-1-ethyl carboxylate], the IC50 was 10000 to 100000 nM in assay [1], 100 to 1000 nM in assay [2] and 100 to 1000 nM in assay [3].

For `COC(=O)c1c[nH]c2c(=O)[nH]c3ccc(S(=O)(=O)NC4CCCNC4)cc3c12` (centres unmarked) [Compound 112, 4-Oxo-8-(piperidin-3-ylsulfamoyl)-4,5-dihydro-3H-pyrrolo[2,3-c]quinoline-1-methyl carboxylate], the half-inhibitory concentration (IC50) in assay [1] lay in the range of 1000 to 10000 nM; in assay [2], 1000 to 10000 nM; in assay [3], 100 to 1000 nM.

Consider `COC(=O)c1c[nH]c2c(=O)[nH]c3ccc(S(=O)(=O)NC4CCNCC4)cc3c12` [Compound 113, 4-Oxo-8-(piperidin-4-ylsulfamoyl)-4,5-dihydro-3H-pyrrolo[2,3-c]quinoline-1-methyl carboxylate], for which the half-inhibitory concentration (IC50) in assay [1] lay within 1000 to 10000 nM; in assay [2], 100 to 1000 nM; in assay [3], 1000 to 10000 nM.

For the compound `CCOC(=O)c1c[nH]c2c(=O)[nH]c3ccc(-c4csc(Nc5ccccc5)n4)cc3c12` [Compound 271, 4-Oxo-8-(2-phenylamino-thiazol-4-yl)-4,5-dihydro-3H-pyrrolo[2,3-c]quinoline-1-ethyl carboxylate], the IC50 in assay [4] is 1000 to 10000 nM; in assay [1], 10000 to 100000 nM; in assay [2], 100 to 1000 nM; in assay [3] it was 100 to 1000 nM; in assay [5] it was 1000 to 10000 nM.
